Measured values published in patent US8192962B2, “Processes for detecting toxic substances” (Daikin Industries, Ltd., priority 2001, dated 2012).

Test system: Energy system protein genes
Assay: DNA chip mRNA expression in yeast, energy system protein genes (Table 4)
Format: cell-based, Saccharomyces cerevisiae S288C
Summary of the method: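 Cells were grown at 25° C. in YPD, treated at logarithmic phase for 2 h with a chemical at a concentration inhibiting growth but not causing death, and compared with untreated cultures. Labeled cDNA was hybridized to a DNA chip carrying all yeast genes, and the expression ratio was taken from scanner fluorescence.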

[Cl][Pb][Cl] [(4), PbCl2]
The level of expressed mRNA in the presence of chemical substance/The level of expressed mRNA in the absence of chemical substance (yeast gene YAL060W): 2.7 | The level of expressed mRNA in the presence of chemical substance/The level of expressed mRNA in the absence of chemical substance (yeast gene YBL058W, cells incubated two hours with the chemical substance): 1.1 | The level of expressed mRNA in the presence of chemical substance/The level of expressed mRNA in the absence of chemical substance (yeast gene YBL099W, cells incubated two hours with the chemical substance): 1.4 | The level of expressed mRNA in the presence of chemical substance/The level of expressed mRNA in the absence of chemical substance (yeast gene YBR001C, cells incubated two hours with the chemical substance): 1.4 | The level of expressed mRNA in the presence of chemical substance/The level of expressed mRNA in the absence of chemical substance (yeast gene YBR185C, cells incubated two hours with the chemical substance): 2.0 | The level of expressed mRNA in the presence of chemical substance/The level of expressed mRNA in the absence of chemical substance (yeast gene YBR221C, cells incubated two hours with the chemical substance): 1.5 | The level of expressed mRNA in the presence of chemical substance/The level of expressed mRNA in the absence of chemical substance (yeast gene YCL040W): 2.0 | The level of expressed mRNA in the presence of chemical substance/The level of expressed mRNA in the absence of chemical substance (yeast gene YCR012W): 1.2 | The level of expressed mRNA in the presence of chemical substance/The level of expressed mRNA in the absence of chemical substance (yeast gene YCR046C, cells incubated two hours with the chemical substance): 1.6 | The level of expressed mRNA in the presence of chemical substance/The level of expressed mRNA in the absence of chemical substance (yeast gene YCR105W, cells incubated two hours with the chemical substance): 3.0 | The level of expressed mRNA in the presence of chemical substance/The level of expressed mRNA in the absence of chemical substance (yeast gene YDL021W): 3.7 | The level of expressed mRNA in the presence of chemical substance/The level of expressed mRNA in the absence of chemical substance (yeast gene YDL067C, cells incubated two hours with the chemical substance): 1.3 | The level of expressed mRNA in the presence of chemical substance/The level of expressed mRNA in the absence of chemical substance (yeast gene YDL078C, cells incubated two hours with the chemical substance): 0.8 | The level of expressed mRNA in the presence of chemical substance/The level of expressed mRNA in the absence of chemical substance (yeast gene YDL107W, cells incubated two hours with the chemical substance): 2.2 | The level of expressed mRNA in the presence of chemical substance/The level of expressed mRNA in the absence of chemical substance (yeast gene YDL174C): 1.3 | The level of expressed mRNA in the presence of chemical substance/The level of expressed mRNA in the absence of chemical substance (yeast gene YDL181W, cells incubated two hours with the chemical substance): 1.8 | The level of expressed mRNA in the presence of chemical substance/The level of expressed mRNA in the absence of chemical substance (yeast gene YDR001C): 1.0 | The level of expressed mRNA in the presence of chemical substance/The level of expressed mRNA in the absence of chemical substance (yeast gene YDR050C, cells incubated two hours with the chemical substance): 1.8 | The level of expressed mRNA in the presence of chemical substance/The level of expressed mRNA in the absence of chemical substance (yeast gene YDR079W, cells incubated two hours with the chemical substance): 1.1 | The level of expressed mRNA in the presence of chemical substance/The level of expressed mRNA in the absence of chemical substance (yeast gene YDR178W, cells incubated two hours with the chemical substance): 2.2 | The level of expressed mRNA in the presence of chemical substance/The level of expressed mRNA in the absence of chemical substance (yeast gene YDR231C): 1.5 | The level of expressed mRNA in the presence of chemical substance/The level of expressed mRNA in the absence of chemical substance (yeast gene YDR298C, cells incubated two hours with the chemical substance): 1.3 | The level of expressed mRNA in the presence of chemical substance/The level of expressed mRNA in the absence of chemical substance (yeast gene YDR377W, cells incubated two hours with the chemical substance): 1.4 | The level of expressed mRNA in the presence of chemical substance/The level of expressed mRNA in the absence of chemical substance (yeast gene YDR529C, cells incubated two hours with the chemical substance): 3.2 | The level of expressed mRNA in the presence of chemical substance/The level of expressed mRNA in the absence of chemical substance (yeast gene YEL024W, cells incubated two hours with the chemical substance): 1.1 | The level of expressed mRNA in the presence of chemical substance/The level of expressed mRNA in the absence of chemical substance (yeast gene YEL039C, cells incubated two hours with the chemical substance): 5.1 | The level of expressed mRNA in the presence of chemical substance/The level of expressed mRNA in the absence of chemical substance (yeast gene YER178W): 1.0 | The level of expressed mRNA in the presence of chemical substance/The level of expressed mRNA in the absence of chemical substance (yeast gene YFL057C): 1.8 | The level of expressed mRNA in the presence of chemical substance/The level of expressed mRNA in the absence of chemical substance (yeast gene YFR053C): 2.2 | The level of expressed mRNA in the presence of chemical substance/The level of expressed mRNA in the absence of chemical substance (yeast gene YGL018C, cells incubated two hours with the chemical substance): 3.0 | The level of expressed mRNA in the presence of chemical substance/The level of expressed mRNA in the absence of chemical substance (yeast gene YGL062W): 0.6 | The level of expressed mRNA in the presence of chemical substance/The level of expressed mRNA in the absence of chemical substance (yeast gene YGL187C, cells incubated two hours with the chemical substance): 1.8 | The level of expressed mRNA in the presence of chemical substance/The level of expressed mRNA in the absence of chemical substance (yeast gene YGL191W, cells incubated two hours with the chemical substance): 1.8 | The level of expressed mRNA in the presence of chemical substance/The level of expressed mRNA in the absence of chemical substance (yeast gene YGL205W, cells incubated two hours with the chemical substance): 0.8 | The level of expressed mRNA in the presence of chemical substance/The level of expressed mRNA in the absence of chemical substance (yeast gene YGL256W, cells incubated two hours with the chemical substance): 1.3 | The level of expressed mRNA in the presence of chemical substance/The level of expressed mRNA in the absence of chemical substance (yeast gene YGR043C): 7.9 | The level of expressed mRNA in the presence of chemical substance/The level of expressed mRNA in the absence of chemical substance (yeast gene YGR062C, cells incubated two hours with the chemical substance, 25° C., YPD medium): 1.4 | The level of expressed mRNA in the presence of chemical substance/The level of expressed mRNA in the absence of chemical substance (yeast gene YGR087C, cells incubated two hours with the chemical substance): 0.6 | The level of expressed mRNA in the presence of chemical substance/The level of expressed mRNA in the absence of chemical substance (yeast gene YGR174C, cells incubated two hours with the chemical substance): 2.4 | The level of expressed mRNA in the presence of chemical substance/The level of expressed mRNA in the absence of chemical substance (yeast gene YGR192C): 1.0 | The level of expressed mRNA in the presence of chemical substance/The level of expressed mRNA in the absence of chemical substance (yeast gene YGR244C): 1.6 | The level of expressed mRNA in the presence of chemical substance/The level of expressed mRNA in the absence of chemical substance (yeast gene YGR254W): 1.3 | The level of expressed mRNA in the presence of chemical substance/The level of expressed mRNA in the absence of chemical substance (yeast gene YHR179W): 0.7 | The level of expressed mRNA in the presence of chemical substance/The level of expressed mRNA in the absence of chemical substance (yeast gene YIL160C): 3.5 | The level of expressed mRNA in the presence of chemical substance/The level of expressed mRNA in the absence of chemical substance (yeast gene YIR031C, cells incubated two hours with the chemical substance): 0.6 | The level of expressed mRNA in the presence of chemical substance/The level of expressed mRNA in the absence of chemical substance (yeast gene YJL052W): 1.8 | The level of expressed mRNA in the presence of chemical substance/The level of expressed mRNA in the absence of chemical substance (yeast gene YJL121C, cells incubated two hours with the chemical substance): 0.8 | The level of expressed mRNA in the presence of chemical substance/The level of expressed mRNA in the absence of chemical substance (yeast gene YJL166W, cells incubated two hours with the chemical substance): 1.3 | The level of expressed mRNA in the presence of chemical substance/The level of expressed mRNA in the absence of chemical substance (yeast gene YJL216C, cells incubated two hours with the chemical substance): 0.9 | The level of expressed mRNA in the presence of chemical substance/The level of expressed mRNA in the absence of chemical substance (yeast gene YJR009C): 1.0
